Measured values taken from PubChem BioAssay AID2060901 (Molecular Pharmacology Branch, DTP, NCI, 2025).
Values joined by “and” are separate entries in the source; they are usually repeats but may differ in a detail not shown here. Identical values can stand only once.

Tested on: 422866-222-R5-J1-PDC complex spheroids viability
Experiment: Anticancer human tumor 422866-222-R5-J1-PDC patient-derived pancreatic adenocarcinoma cell line growth inhibition [RAS]
Conditions: for viability, T/C: stronger effect = lower value
Outline: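 Agents were tested in combination matrices in half-log decrements from a top concentration at or near clinical Cmax (10 microM if undetermined). Targets were multi-cell spheroids of tumour lines plus HUVEC and MSC stromal cells.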
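Note: spheroids exposed to compounds for 7 days.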
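Throughout, for viability, T/C: 100% = DMSO vehicle control viability.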

## C=CC(=O)N1CCN(c2nc(OCC3CCCN3C)nc3c(F)c(-c4nc(N)cc(C)c4C(F)(F)F)c(Cl)cc23)C(C)C1 (centres undefined) + CCn1c(-c2cc(N3CCN(C)CC3)cnc2C(C)OC)c2c3cc(ccc31)-c1csc(n1)CC(NC(=O)C1CC1C)C(=O)N1CCCC(N1)C(=O)OCC(C)(C)C2
Curve of first compound, second compound 0.000949 µM
  IC50: < 3.16 nM
Curve of first compound, second compound 0.003 µM
  IC50: < 3.16 nM
Curve of first compound, second compound 0.00949 µM
  IC50: < 3.16 nM
Curve of first compound, second compound 0.03 µM
  IC50: < 3.16 nM
Curve of first compound, second compound 0.0949 µM
  IC50: < 3.16 nM
Curve of first compound, second compound 0.3 µM
  IC50: < 3.16 nM
Second compound 0.000949 µM, first compound 0.00316 µM
  viability, T/C: 19.5%
Second compound 0.000949 µM, first compound 0.01 µM
  viability, T/C: 18.6%
Second compound 0.000949 µM, first compound 0.0316 µM
  viability, T/C: 16.9%
Second compound 0.000949 µM, first compound 0.1 µM
  viability, T/C: 18.5%
Second compound 0.000949 µM, first compound 0.316 µM
  viability, T/C: 15.8%
Second compound 0.000949 µM, first compound 1 µM
  viability, T/C: 20.3%
Second compound 0.003 µM, first compound 0.00316 µM
  viability, T/C: 19.6%
Second compound 0.003 µM, first compound 0.01 µM
  viability, T/C: 15%
Second compound 0.003 µM, first compound 0.0316 µM
  viability, T/C: 19.8%
Second compound 0.003 µM, first compound 0.1 µM
  viability, T/C: 18.2%
Second compound 0.003 µM, first compound 0.316 µM
  viability, T/C: 17.9%
Second compound 0.003 µM, first compound 1 µM
  viability, T/C: 20.6%
Second compound 0.00949 µM, first compound 0.00316 µM
  viability, T/C: 18.3%
Second compound 0.00949 µM, first compound 0.01 µM
  viability, T/C: 19.1%
Second compound 0.00949 µM, first compound 0.0316 µM
  viability, T/C: 17.4%
Second compound 0.00949 µM, first compound 0.1 µM
  viability, T/C: 14.8%
Second compound 0.00949 µM, first compound 0.316 µM
  viability, T/C: 17.7%
Second compound 0.00949 µM, first compound 1 µM
  viability, T/C: 18%
Second compound 0.03 µM, first compound 0.00316 µM
  viability, T/C: 17.1%
Second compound 0.03 µM, first compound 0.01 µM
  viability, T/C: 15.9%
Second compound 0.03 µM, first compound 0.0316 µM
  viability, T/C: 15.7%
Second compound 0.03 µM, first compound 0.1 µM
  viability, T/C: 17.9%
Second compound 0.03 µM, first compound 0.316 µM
  viability, T/C: 18.2%
Second compound 0.03 µM, first compound 1 µM
  viability, T/C: 22.9%
Second compound 0.0949 µM, first compound 0.00316 µM
  viability, T/C: 19.4%
Second compound 0.0949 µM, first compound 0.01 µM
  viability, T/C: 16.9%
Second compound 0.0949 µM, first compound 0.0316 µM
  viability, T/C: 15.9%
Second compound 0.0949 µM, first compound 0.1 µM
  viability, T/C: 19%
Second compound 0.0949 µM, first compound 0.316 µM
  viability, T/C: 21.3%
Second compound 0.0949 µM, first compound 1 µM
  viability, T/C: 21.5%
Second compound 0.3 µM, first compound 0.00316 µM
  viability, T/C: 19.5%
Second compound 0.3 µM, first compound 0.01 µM
  viability, T/C: 22.9%
Second compound 0.3 µM, first compound 0.0316 µM
  viability, T/C: 21.7%
Second compound 0.3 µM, first compound 0.1 µM
  viability, T/C: 20.2%
Second compound 0.3 µM, first compound 0.316 µM
  viability, T/C: 19.5%
Second compound 0.3 µM, first compound 1 µM
  viability, T/C: 24.9%

## NC1c2ccccc2OC12CCN(c1cnc3c(N4CCCc5ncccc54)n[nH]c3n1)CC2 (centres undefined)
Compound 0.0316 µM
  viability, T/C: 51.6% [middle of 4 runs]
Compound 0.1 µM
  viability, T/C: 45.3% [middle of 4 runs]
Compound 0.316 µM
  viability, T/C: 40.2% [middle of 4 runs]
Compound 1 µM
  viability, T/C: 40% [middle of 4 runs]
Compound 3.16 µM
  viability, T/C: 36.7% [middle of 4 runs]
Compound 10 µM
  viability, T/C: 33.8% [middle of 4 runs]
Curve of compound
  IC50: 290 nM and < 31.6 nM
